From ChEMBL document CHEMBL4706644, “Structure-Activity Relationship Studies of Pyrimidine-4-Carboxamides as Inhibitors of N-Acylphosphatidylethanolamine Phospholipase D” (J Med Chem, 2021)

target: T1, N-acyl-phosphatidylethanolamine-hydrolyzing phospholipase D (Homo sapiens, UniProt Q6IQ20); test: Inhibition of full length human NAPE-PLD expressed in HEK293T cell lysate using PED6 as substrate preincubated for 30 mins followed by substrate addition and measured at 2 mins interval for 1 hr by tecan-plate reader analysis; assay type: subcellular
T1 sequence (Q6IQ20 whole entry): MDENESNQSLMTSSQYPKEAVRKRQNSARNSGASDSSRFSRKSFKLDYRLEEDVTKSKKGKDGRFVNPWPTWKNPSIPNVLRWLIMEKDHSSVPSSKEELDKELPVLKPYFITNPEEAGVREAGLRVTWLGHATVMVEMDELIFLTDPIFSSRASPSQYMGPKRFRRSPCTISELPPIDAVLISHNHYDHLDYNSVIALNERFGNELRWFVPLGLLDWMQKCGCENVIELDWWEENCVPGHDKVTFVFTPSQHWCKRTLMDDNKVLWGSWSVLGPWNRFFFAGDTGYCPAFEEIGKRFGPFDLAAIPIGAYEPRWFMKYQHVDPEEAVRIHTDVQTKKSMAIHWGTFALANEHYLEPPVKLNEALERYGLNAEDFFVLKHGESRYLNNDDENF

IC50 [µM] | Compound
32.4 | CN(CCc1ccccc1)c1nc(C(=O)NCc2nccs2)cc(N2CCOCC2)n1
22.9 | O=C(NCC1CC1)c1cc(N2CCOCC2)nc(NCc2ccccc2)n1
13.5 | CNC(=O)c1cc(N2CCOCC2)nc(N(C)CCc2ccccc2)n1
17.8 | CN(CCc1ccccc1)c1nc(C(N)=O)cc(N2CCOCC2)n1
> 50.1 | O=C(NCC1CC1)c1cc(N2CCOCC2)ncn1
> 50.1 | O=C(NCC1CC1)c1cc(N2CCOCC2)nc(Cl)n1
1.12 | O=C(NCC1CC1)c1cc(N2CCOCC2)nc(N(CCc2ccccc2)c2ccccc2)n1
> 50.1 | CN(CCc1ccccc1)c1nc(C(=O)NCC2CC2)cc(N2CCS(=O)(=O)CC2)n1
23.4 | CN(CCc1ccccc1)c1nc(C(=O)NCc2ccccc2)cc(N2CCOCC2)n1
40.7 | CN(CCc1ccccc1)c1nc(-c2ncc(C3CC3)[nH]2)cc(N2CCOCC2)n1
17 | CNC(=O)CNC(=O)c1cc(N2CCOCC2)nc(N(C)CCc2ccccc2)n1
7.59 | CN(CCc1ccccc1)c1nc(NC(=O)CC2CC2)cc(N2CCOCC2)n1
33.1 | CN(CCc1ccccc1)c1nc(C(=O)NCC(F)(F)F)cc(N2CCOCC2)n1
> 50.1 | CN(CCc1ccccc1)c1nc(C(=O)NCC2CC2)nc(N2CCOCC2)n1
> 50.1 | CN(CC1CC1)C(=O)c1cc(N2CCOCC2)nc(N(C)CCc2ccccc2)n1
0.741 | O=C(NCC1CC1)c1cc(N2CCOCC2)nc(N(CCc2ccccc2)Cc2ccccc2)n1
21.4 | CN(CCc1ccccc1)c1nc(C(=O)NCC(C)(C)C)cc(N2CCOCC2)n1
34.7 | CCCCCCNC(=O)c1cc(N2CCOCC2)nc(N(C)CCc2ccccc2)n1
12.9 | CN(CCc1ccccc1)c1nc(C(=O)NCC2CC2)cc(N2CCN(C(=O)OCc3ccccc3)CC2)n1
17.4 | O=C(NCC1CC1)c1cc(N2CCS(=O)(=O)CC2)nc(N2CCC[C@@H](c3ccccc3)C2)n1
> 50.1 | CN(CCc1ccccc1)c1nc(C(=O)NCc2ccc(-c3ccccc3)cc2)cc(N2CCOCC2)n1
> 50.1 | CN(CCc1ccccc1)c1nc(C(=O)O)cc(N2CCOCC2)n1
0.813 | CN(CCc1ccccc1)c1nc(C(=O)NCC2CC2)cc(N2CCOCC2)n1
11 | COCCNC(=O)c1cc(N2CCOCC2)nc(N(C)CCc2ccccc2)n1
30.9 | CN(CCc1ccccc1)c1nc(C(=O)NCC#N)cc(N2CCOCC2)n1
> 50.1 | CN(CCc1ccccc1)c1nc(C(=O)NCC(=O)O)cc(N2CCOCC2)n1
25.1 | O=C(NCC1CC1)c1cc(N2CCOCC2)nc(N2CCCCC2CC2CCCCC2)n1 (racemic)

target: T2, N-acyl-phosphatidylethanolamine-hydrolyzing phospholipase D (Mus musculus, UniProt Q8BH82); test: Inhibition of full length mouse NAPE-PLD expressed in HEK293T cell lysate using PED6 as substrate preincubated for 30 mins followed by substrate addition and measured at 2 mins interval for 1 hr by tecan-plate reader analysis; assay type: subcellular
T2 sequence (Q8BH82 whole entry): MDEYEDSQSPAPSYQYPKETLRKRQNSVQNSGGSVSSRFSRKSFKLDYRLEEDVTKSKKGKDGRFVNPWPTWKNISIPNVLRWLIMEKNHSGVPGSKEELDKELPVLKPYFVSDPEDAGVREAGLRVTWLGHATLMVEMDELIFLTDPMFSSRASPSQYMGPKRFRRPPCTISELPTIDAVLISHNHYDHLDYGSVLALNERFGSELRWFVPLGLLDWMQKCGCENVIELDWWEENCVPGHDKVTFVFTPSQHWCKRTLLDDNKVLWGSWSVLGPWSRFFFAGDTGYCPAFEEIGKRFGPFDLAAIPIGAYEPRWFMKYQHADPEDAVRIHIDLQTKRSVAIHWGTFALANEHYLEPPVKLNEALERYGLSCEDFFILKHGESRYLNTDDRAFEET

IC50 [µM] | Compound
1.26 | O=C(NCC1CC1)c1cc(N2CC[C@@H](O)C2)nc(N2CCC[C@H](c3ccccc3)C2)n1
0.575 | O=C(NCC1CC1)c1cc(N2CCOCC2)nc(N2CCC[C@@H](c3ccccc3)C2)n1
1.82 | O=C(NCC1CC1)c1cc(N2CC[C@H](O)C2)nc(N2CCC[C@H](c3ccccc3)C2)n1
0.38 | O=C(NCC1CC1)c1cc(N2CC[C@@H](O)C2)nc(N2CCC[C@@H](c3ccccc3)C2)n1
9.55 | O=C(NCC1CC1)c1cc(N2CCS(=O)(=O)CC2)nc(N2CCC[C@@H](c3ccccc3)C2)n1
0.389 | CN(C)c1cc(C(=O)NCC2CC2)nc(N2CCC[C@@H](c3ccccc3)C2)n1
3.31 | CN(CCc1ccccc1)c1nc(C(=O)NCC2CC2)cc(N2CCOCC2)n1
0.447 | O=C(NCC1CC1)c1cc(N2CC[C@H](O)C2)nc(N2CCC[C@@H](c3ccccc3)C2)n1

target: T1, N-acyl-phosphatidylethanolamine-hydrolyzing phospholipase D; test: Inhibition of full length human NAPE-PLD expressed in HEK293 cells using radiolabelled diether-NAPE as substrate incubated for 20 mins by liquid scintillation counter analysis

IC50 [µM] | Compound
10 | CCCCCCCCCCCCCC(=O)NCCNP(=O)(O)OCC(COC(=O)CCCCC)OC(=O)CCCCC (stereo unspecified)
